# Like-named read-outs stand apart in the source and are kept apart here.
# Tests used:
# [1] = tested on: human promyelocytic leukemia (HL-60) cells; assay: Antiproliferative assay, cell counting (Coulter Counter), HL-60; assay type: cell-based; conditions: Homo sapiens; HL-60, 72–96 h; read-out: IC50, inhibition of proliferation
# Method: (§1) Human cervix carcinoma (HeLa), human colon carcinoma (HT29), human breast carcinoma (MCF-7) and human lymphoma (HL-60) cells (3–5 × 10^4 cells) and a serial (five-fold) dilution of the test compounds were added to a 96-well microtiter plate. The cells were incubated for 72–96 h (depending on the tumor cell line) at 37 °C in a humidified 5% CO2 atmosphere. At the end of the incubation period, the cells were counted in a Coulter Counter (Coulter Electronics Ltd, Harpenden Herts, UK). […] The IC50 values represent the average (±standard deviation) of at least two to four independent experiments.
# [2] = tested on: tubulin (colchicine site); assay: Inhibition of [3H]colchicine binding to tubulin; design: species or system bovine; conditions: tubulin 1 µM, [3H]colchicine 5 µM, compound 5 µM
# Method: To evaluate the effect of the compounds on tubulin assembly in vitro[40], varying concentrations of compounds were preincubated with 10 μM bovine brain tubulin in 0.8M monosodium glutamate (pH adjusted to 6.6 with HCl in a 2.0M stock solution) at 30 °C and then cooled to 0 °C. After addition of 0.4 mM GTP, the mixtures were transferred to 0 °C cuvettes in a recording spectrophotometer and warmed to 30 °C. Tubulin assembly was followed turbidimetrically at 350 nm. […] The capacity of the test compounds to inhibit colchicine binding to tubulin was measured as described. The reaction mixtures contained 1 μM tubulin, 5 μM [^3H]colchicine and 5 μM test compound.
# [3] = tested on: U-937 cells; assay: Cell cycle phase distribution and apoptosis, flow cytometry (propidium iodide) and fluorescence microscopy, U-937; assay type: cell-based, human
# Method: Fluorescent microscopy and flow cytometric analysis of propidium iodide-stained cells were performed as described. Briefly, cells were harvested and fixed in 3% paraformaldehyde and incubated at room temperature for 10 min. The fixative was removed, and the cells were washed with PBS, resuspended in 30–50 μL of PBS containing 20 μg/mL bis-benzimide trihydrochloride (Hoechst 33258) and incubated at room temperature for 15 min. Stained nuclei were visualized using a Zeiss fluorescence microscope.
# Flow cytometric analysis was carried out using a BD FACSVerse™ cytometer (BD Biosciences, San Jose, CA, USA).
# [4] = tested on: human cervix carcinoma (HeLa) cells; assay: Antiproliferative assay, cell counting (Coulter Counter), HeLa; assay type: cell-based; conditions: 72–96 h, read-out: IC50, inhibition of proliferation
# Method: as §1
# [5] = tested on: human breast adenocarcinoma (MCF-7) cells; assay: Antiproliferative assay, cell counting (Coulter Counter), MCF-7; assay type: cell-based; conditions: for fold more potent than CA-4: MCF-7 cells, ratio of IC50 values
# Method: as §1
SMILES,IC50 [1] [nM],Colchicine binding % ±SD (inhibition) [2] [%],"% G1 ([3]; U-937, 24 h, 3 µM) [%]","% G2-M ([3]; U-937, 24 h, 3 µM) [%]","% S ([3]; U-937, 24 h, 3 µM) [%]","% Sub-G1 ([3]; U-937, 24 h, 3 µM) [%]","% G1 ([3]; U-937, 24 h, 10 µM) [%]","% G2-M ([3]; U-937, 24 h, 10 µM) [%]","% S ([3]; U-937, 24 h, 10 µM) [%]","% Sub-G1 ([3]; U-937, 24 h, 10 µM) [%]","% G1 ([3]; U-937, 48 h, 3 µM) [%]","% G2-M ([3]; U-937, 48 h, 3 µM) [%]","% S ([3]; U-937, 48 h, 3 µM) [%]","% Sub-G1 ([3]; U-937, 48 h, 3 µM) [%]","% G1 ([3]; U-937, 48 h, 10 µM) [%]","% G2-M ([3]; U-937, 48 h, 10 µM) [%]","% S ([3]; U-937, 48 h, 10 µM) [%]","% Sub-G1 ([3]; U-937, 48 h, 10 µM) [%]","% G1 ([3]; U-937, 72 h, 3 µM) [%]","% G2-M ([3]; U-937, 72 h, 3 µM) [%]",other results
"CCOC(=O)c1[nH]c2ccc(OC)cc2c1/C=C/C(=O)c1cc(OC)c(OC)c(OC)c1 [Compound 9d, (E)-Ethyl 5-methoxy-3-(3-oxo-3-(3,4,5-trimethoxyphenyl)prop-1-en-1-yl)-1H-indole-2-carboxylate]",3400 ± 1000,9.6 ± 2,52.3 ± 0.2,21.2 ± 0.4,21.8 ± 0.0,3.5 ± 0.3,44.9 ± 0.6,24.8 ± 0.3,22.9 ± 0.4,5.6 ± 0.5,52.9 ± 0.9,18.3 ± 0.3,25.8 ± 0.5,2.3 ± 0.1,55.3 ± 0.7,16.9 ± 0.5,23.1 ± 0.1,4.1 ± 0.4,53.6 ± 2.4,15.4 ± 1.0,"% S ([3]; U-937, 72 h, 3 µM): 21.3 ± 1.0%; % Sub-G1 ([3]; U-937, 72 h, 3 µM): 7.9 ± 0.2%; % G1 ([3]; U-937, 72 h, 10 µM): 55.1 ± 0.0%; % G2-M ([3]; U-937, 72 h, 10 µM): 15.5 ± 0.8%; % S ([3]; U-937, 72 h, 10 µM): 22.6 ± 0.7%; % Sub-G1 ([3]; U-937, 72 h, 10 µM): 5.4 ± 0.2%; apoptosis induction (fluorescence microscopy and flow cytometry) ([3]; U-937 cells): not an apoptotic inducer"
"CCOC(=O)c1[nH]c2cc(OC)ccc2c1/C=C/C(=O)c1cc(OC)c(OC)c(OC)c1 [Compound 9f, (E)-Ethyl 6-methoxy-3-(3-oxo-3-(3,4,5-trimethoxyphenyl)prop-1-en-1-yl)-1H-indole-2-carboxylate]",5200 ± 2200,23 ± 1,42.7 ± 0.5,25.2 ± 0.1,24.6 ± 0.8,5.9 ± 0.3,36.7 ± 1.8,23.8 ± 0.4,25.5 ± 0.5,11.9 ± 1.6,51.0 ± 0.5,19.2 ± 0.5,24.0 ± 0.3,5.1 ± 0.1,47.1 ± 1.1,18.2 ± 0.1,23.4 ± 0.3,10.1 ± 0.6,53.1 ± 2.0,16.5 ± 0.6,"IC50 [4]: 840 ± 390 nM; IC50 ([4]; Homo sapiens): < 1000 nM; fold more potent than CA-4 [5]: 1.5–2 fold; % S ([3]; U-937, 72 h, 3 µM): 22.3 ± 1.4%; % Sub-G1 ([3]; U-937, 72 h, 3 µM): 6.4 ± 0.6%; % G1 ([3]; U-937, 72 h, 10 µM): 43.3 ± 1.7%; % G2-M ([3]; U-937, 72 h, 10 µM): 15.0 ± 0.6%; % S ([3]; U-937, 72 h, 10 µM): 21.2 ± 1.2%; % Sub-G1 ([3]; U-937, 72 h, 10 µM): 19.0 ± 3.3 %"
"COC(=O)c1[nH]c2cc(OC)ccc2c1/C=C/C(=O)c1cc(OC)c(OC)c(OC)c1 [Compound 9e, (E)-Methyl 6-methoxy-3-(3-oxo-3-(3,4,5-trimethoxyphenyl)prop-1-en-1-yl)-1H-indole-2-carboxylate]",18000 ± 14000,29 ± 5,43.2 ± 0.2,24.5 ± 0.1,24.4 ± 0.1,6.4 ± 0.4,33.0 ± 2.1,23.2 ± 0.3,27.1 ± 0.5,14.3 ± 1.6,53.6 ± 0.3,16.5 ± 0.1,24.6 ± 0.3,4.5 ± 0.2,39.7 ± 1.1,17.6 ± 0.0,23.3 ± 0.1,17.9 ± 1.2,52.0 ± 0.9,14.3 ± 0.2,"IC50 ([4]; Homo sapiens): 370 ± 180 nM; IC50 ([5]; Homo sapiens, MCF7, MCF-7, 72–96 h, read-out: IC50, inhibition of proliferation): 170 ± 30 nM; fold more potent than CA-4 [5]: 1.5–2 fold; % S ([3]; U-937, 72 h, 3 µM): 21.2 ± 0.7%; % Sub-G1 ([3]; U-937, 72 h, 3 µM): 10.8 ± 0.1%; % G1 ([3]; U-937, 72 h, 10 µM): 44.5 ± 1.4 %; % G2-M ([3]; U-937, 72 h, 10 µM): 14.1 ± 0.4%; % S ([3]; U-937, 72 h, 10 µM): 21.4 ± 0.6%; % Sub-G1 ([3]; U-937, 72 h, 10 µM): 18.4 ± 1.2 %"

# Reference: PMC6116705, “Design, synthesis, in vitro antiproliferative activity and apoptosis-inducing studies of 1-(3′,4′,5′-trimethoxyphenyl)-3-(2′-alkoxycarbonylindolyl)-2-propen-1-one derivatives obtained by a molecular hybridisation approach” (Journal of Enzyme Inhibition and Medicinal Chemistry, 2018)
